These results are taken from patent publication US20250163057A1, “DCN-1 MODULATING COMPOUNDS AND METHODS OF USE THEREOF” (Cellarity, Inc., priority 2023, published 2025).

Like-named read-outs stand apart in the source and are kept apart here.

The target in data set [1] is DCN1 protein (Homo sapiens (Human), UniProt Q96GG9). In words: Intact Protein MS Analysis with the RapidFire-TOF System (covalent adduct formation). It is filed as binding. The conditions noted are these: MS Emax; 400 nM DCN1, 3 hours at room temperature. Summed up:
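Tag-cleaved human DCN1 (400 nM) expressed in E. coli, in 25 mM Tris-HCl, 200 mM NaCl, 1 mM DTT, was incubated with 11 compound concentrations for 3 h at room temperature and quenched with 0.2% formic acid. Intact-protein Q-TOF MS with deconvolution detected the compound adduct mass.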

Data set [2] concerns the target T1, DCN1 (DCUND1) protein PONY domain (Homo sapiens (Human), UniProt Q96GG9). In words: Off-rate measurement of reversible covalent molecules (jump dilution TR-FRET with Cy5 probe). It is filed as binding. The conditions noted are these: for Category: binding mode category from off-rate assay; for residence time: inverse of rate constant K; for residence time / half-life: jump dilution TR-FRET; for koff: jump dilution, Cy5 covalent probe 150 nM, TR-FRET; for half-life: ln(2)/K. For orientation: In TR-FRET formats the signal depends on donor and acceptor labels being close together.

The target in data set [3] is T1, DCN1 (DCUND1) protein PONY domain. In words: TR-FRET assay, DCN1 binding with FAM-labeled probe. Summed up:
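Biotinylated DCN1 PONY domain, labeled with streptavidin-Tb, was competed against a FAM-labeled non-covalent DCN1 inhibitor probe in buffer with TritonX and 200 mM NaCl. Conditions were 5 nM DCN1 with 20 nM FAM-probe, or 0.31 nM DCN1 with 100 nM FAM-plus 800 nM unlabeled probe. The TR-FRET ratio was read at 1, 5 and 24 h (0.1% DMSO).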

The mark [4] stands for this setting: 24 hr after treatment with compound, read-out: TR FRET IC50 24 hr.
[5] abbreviates: read-out: TR FRET IC50 1 hr, 1 hr after treatment with compound.

T1 sequence (Q96GG9 60-248): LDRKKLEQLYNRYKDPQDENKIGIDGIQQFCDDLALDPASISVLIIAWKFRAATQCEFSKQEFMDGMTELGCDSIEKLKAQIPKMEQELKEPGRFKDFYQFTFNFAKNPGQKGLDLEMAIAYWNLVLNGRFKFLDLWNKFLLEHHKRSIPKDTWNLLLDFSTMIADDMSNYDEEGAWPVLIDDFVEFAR
Chain of DCN1 protein (Q96GG9 whole entry): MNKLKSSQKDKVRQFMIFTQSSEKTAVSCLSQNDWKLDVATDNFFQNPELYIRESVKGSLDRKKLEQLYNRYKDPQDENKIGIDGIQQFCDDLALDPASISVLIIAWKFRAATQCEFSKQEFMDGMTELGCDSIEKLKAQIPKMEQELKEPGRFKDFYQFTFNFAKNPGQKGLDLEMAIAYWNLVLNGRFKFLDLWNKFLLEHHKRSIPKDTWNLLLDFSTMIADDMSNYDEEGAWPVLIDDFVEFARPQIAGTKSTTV

With `CCN1C(=O)[C@@H](NC(=O)c2cccc(C(F)(F)F)c2)[C@@H](c2ccc(F)cc2)c2c(C(=O)N(C)[C@@H](C#N)CCN(C)C)nn(C3CCOCC3)c21` [Compound I-369], in data set [1], the “% Adduct Formation” value is “+++ (MS Emax % adduct formation greater than 80.0 and less than or equal to 100.0)”. Besides, in data set [2], the Category entry is “fast reversible”, the residence time stood at 39.4 min, the koff is 0.000425 s⁻¹ and the half-life amounted to 27.3 min. Moreover, in data set [3] (setting [4]), the IC50 is not above 200 nM. In data set [3] (setting [5]), the IC50 is not above 200 nM.
For `CCN1C(=O)[C@@H](NC(=O)c2cccc(C(F)(F)F)c2)[C@@H](c2ccc(F)cc2)c2c(C(=O)N(C)[C@H](C#N)CCN(C)C)nn(C3CCOCC3)c21` [Compound I-370], the “% Adduct Formation” value in data set [1] is “+++ (MS Emax % adduct formation greater than 80.0 and less than or equal to 100.0)”. Further, in data set [2], the Category result is listed as “fast reversible”, the residence time stood at 78.6 min, the koff was 0.000212 s⁻¹ and the half-life came out at 54.5 min. The IC50 in data set [3] (setting [4]) is not above 200 nM. For the same molecule, the IC50 in data set [3] (setting [5]) is not above 200 nM.
As for `CCN1C(=O)[C@@H](NC(=O)c2cccc(C(F)(F)F)c2)[C@@H](C2CC2)c2c(C(=O)N3CCNC[C@H]3C#N)nn(-c3ccccc3)c21` [Compound I-383], in data set [1], the “% Adduct Formation” value is “+++ (MS Emax % adduct formation greater than 80.0 and less than or equal to 100.0)”. Further, the Category entry in data set [2] is “irreversible covalent”. Also, the IC50 in data set [3] (setting [4]) and in data set [3] (setting [5]) was not above 200 nM each time.

The koff is a measure of how fast the partners let go of each other. By half-life is commonly meant the time needed for the level to fall by half in the phase considered. By IC50 is commonly meant the concentration at which inhibition is half-maximal.
